Measured values reported in US20090054493A1, “THIAZOLE DERIVATIVES AS PPAR DELTA LIGANDS AND THEIR MANUFACTURING PROCESS” (priority 2005, published 2009).

Tests used:
Type in all cases: cell-based
PPARα = biological target: T1, PPARα (Homo sapiens, UniProt Q07869); experiment: Transfection assay (luciferase reporter) in CV-1 cells, PPARα; details: full-length PPAR plasmid, luciferase normalized with β-galactosidase
T1 construct: full-length PPARs plasmid DNA; expressed in transfected cells; host or cells: CV-1 cells
T1 sequence (Q07869 1-468): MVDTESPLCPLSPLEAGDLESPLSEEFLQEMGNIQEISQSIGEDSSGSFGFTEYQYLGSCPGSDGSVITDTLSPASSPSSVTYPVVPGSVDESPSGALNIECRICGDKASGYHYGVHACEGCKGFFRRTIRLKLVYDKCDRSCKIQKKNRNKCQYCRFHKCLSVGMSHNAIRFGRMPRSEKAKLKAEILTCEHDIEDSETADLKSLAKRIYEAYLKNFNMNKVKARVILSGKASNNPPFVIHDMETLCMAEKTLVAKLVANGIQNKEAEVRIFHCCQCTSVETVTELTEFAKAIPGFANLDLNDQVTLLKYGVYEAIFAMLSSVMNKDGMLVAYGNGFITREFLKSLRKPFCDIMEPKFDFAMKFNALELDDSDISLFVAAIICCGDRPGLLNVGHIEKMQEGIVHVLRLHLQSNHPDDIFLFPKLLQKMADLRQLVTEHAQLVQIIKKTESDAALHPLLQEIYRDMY
Protocol: (§1) The compounds prepared in Examples were tested for PPARδ activity by a transfection assay. In addition, the compounds were tested for selectivity for PPARα and PPARγ, the subtypes of PPARs, and also tested for toxicity by a MTT assay.
(§2) A transfection assay was performed using CV-1 cells. The culture of the cells was performed using a DMEM medium (10% FBS, DBS (delipidated) and 1% penicillin/streptomycin) on a 96-well plate in a 5% carbon dioxide-containing incubator at 37° C. The test was performed in four steps consisting of cell inoculation, transfection, treatment of the compounds, and analysis of results. Specifically, CV-1 cells were inoculated onto a 96-well plate at a concentration of 5,000 cells/well, and after 24 hours, the cells were transfected. In the cell transfection, full-length PPARs plasmid DNA, reporter DNA that has luciferase activity and thus allows the identification of PPARs, and β-galactosidase DNA that provides the information of transfection efficiency, were used as transfection reagents. Each of the compounds developed in the present invention was dissolved in dimethylsulfoxide (DMSO) and transfected into the cells at various concentrations using media. The cells were cultured in an incubator for 24 and then lysed with lysis buffer. The lysed cells were measured for luciferase and β-galactosidase activities using a luminometer and a microplate reader. The measured luciferase values were normalized with the β-galactosidase values and graphed. From the graph, EC50 values were determined.

PPARγ = biological target: T2, PPARγ (Homo sapiens, UniProt P37231); experiment: Transfection assay (luciferase reporter) in CV-1 cells, PPARγ; details: full-length PPAR plasmid, luciferase normalized with β-galactosidase
T2 construct: full-length PPARs plasmid DNA; expressed in transfected cells; host or cells: CV-1 cells
T2 sequence (P37231 1-505): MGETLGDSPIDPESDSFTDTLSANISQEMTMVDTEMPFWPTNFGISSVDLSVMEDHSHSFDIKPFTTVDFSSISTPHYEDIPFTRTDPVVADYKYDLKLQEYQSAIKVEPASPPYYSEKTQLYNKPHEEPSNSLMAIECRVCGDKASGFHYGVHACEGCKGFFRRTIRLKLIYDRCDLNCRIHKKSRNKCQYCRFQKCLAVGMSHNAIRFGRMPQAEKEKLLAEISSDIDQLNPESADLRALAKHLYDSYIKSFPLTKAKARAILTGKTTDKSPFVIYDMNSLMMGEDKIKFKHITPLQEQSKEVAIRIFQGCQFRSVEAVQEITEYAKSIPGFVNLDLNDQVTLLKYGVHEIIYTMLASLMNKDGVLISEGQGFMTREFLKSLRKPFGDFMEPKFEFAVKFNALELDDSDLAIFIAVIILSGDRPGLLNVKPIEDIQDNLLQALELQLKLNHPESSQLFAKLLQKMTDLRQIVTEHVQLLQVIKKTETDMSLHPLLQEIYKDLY
Protocol: as §1
as §2, with “The test was performed in four steps consisting of cell inoculation, transfection, treatment of the compounds, and analysis of results.” left out

MTT assay, cytotoxicity = details: African green monkey, CV-1 cells, read-out: LC50 Cytotoxicity
Protocol: The compounds of Examples 47-97 according to the present invention were tested for cytotoxicity using a MTT assay. MTT is a water-soluble yellow substance, but if it is introduced into living cells, it will be degenerated into a water-insoluble purple crystal due to dehydrogenase contained in mitochondria. If this substance is dissolved in dimethylsulfoxide and then measured for absorbance at 550 nm, cytotoxicity can be assayed. The test method is as follows.
CV-1 cells were first inoculated onto a 96-well plate at a concentration of 5,000 cells/well. The inoculated cells were cultured in a 5% carbon dioxide-containing humidified incubator at 37° C. for 24 hours, and then treated with the inventive compounds at various concentrations. After 24 hours of culture, a MTT reagent was added to the cultured cells. After 15 minutes of culture, the resulting purple crystal was dissolved in dimethylsulfoxide and then measured for absorbance using a microplate reader. From the measured absorbance, cytotoxicity was assayed.

PPARδ = biological target: T3, PPARδ (Homo sapiens, UniProt Q03181); experiment: Transfection assay (luciferase reporter) in CV-1 cells, PPARδ; parameters: full-length PPARs plasmid DNA; expressed in transfected cells; host or cells: CV-1 cells; details: full-length PPAR plasmid, luciferase normalized with β-galactosidase
T3 sequence (Q03181 1-441): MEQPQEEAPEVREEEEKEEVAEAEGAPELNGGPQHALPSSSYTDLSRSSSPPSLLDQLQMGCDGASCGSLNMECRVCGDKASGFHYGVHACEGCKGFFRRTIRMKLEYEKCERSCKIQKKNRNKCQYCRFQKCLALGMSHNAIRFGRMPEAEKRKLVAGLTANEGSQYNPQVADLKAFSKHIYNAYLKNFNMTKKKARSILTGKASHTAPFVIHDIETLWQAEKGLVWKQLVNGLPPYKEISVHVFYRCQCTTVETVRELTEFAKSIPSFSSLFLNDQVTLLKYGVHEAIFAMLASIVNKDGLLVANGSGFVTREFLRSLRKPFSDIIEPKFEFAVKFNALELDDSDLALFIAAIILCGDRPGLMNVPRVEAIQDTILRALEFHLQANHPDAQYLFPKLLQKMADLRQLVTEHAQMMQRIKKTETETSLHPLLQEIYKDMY
Protocol: as §1
as §2, with “The test was performed in four steps consisting of cell inoculation, transfection, treatment of the compounds, and analysis of results.” left out

Row | Structure (SMILES) | EC50 (PPARα) [µM] | EC50 (PPARγ) [µM] | CC50 at 24 h (MTT assay, cytotoxicity) [µM] | EC50 (PPARδ) [nM] | EC50 PPARα (PPARα) | EC50 PPARγ (PPARγ)
1 | Cc1cc(SC(Cc2c(F)cccc2F)c2sc(-c3ccc(C(F)(F)F)cc3)nc2C)ccc1OCC(=O)O (stereo not drawn) [Example 83, 2-[4-[1-[2-[4-(trifluoromethyl)phenyl]-4-methylthiazol-5-yl]-2-(2,6-difluorophenyl)ethylthio]-2-methylphenoxy]acetic acid] | > 100 | > 10 | > 100 | 2.6 | – | –
2 | Cc1cc(SC(Cc2c(Cl)cccc2Cl)c2sc(-c3ccc(C(F)(F)F)cc3)nc2C)ccc1OCC(=O)O (stereo not drawn) [Example 84, 2-[4-[2-(2,6-dichlorophenyl)-1-[2-[4-(trifluoromethyl)phenyl]-4-methylthiazol-5-yl]ethylthio]-2-methylphenoxy]acetic acid] | – | – | > 100 | 2.1 | ia | ia
3 | Cc1cc(SC(Cc2ccc(F)cc2F)c2sc(-c3ccc(C(F)(F)F)cc3)nc2C)ccc1OCC(=O)O (stereo not drawn) [Example 85, 2-[4-[1-[2-[4-(trifluoromethyl)phenyl]-4-methylthiazol-5-yl]-2-(2,4-difluorophenyl)ethylthio]-2-methylphenoxy]acetic acid] | – | – | > 100 | 3.4 | ia | ia
4 | Cc1cc(SC(Cc2cc(F)ccc2Cl)c2sc(-c3ccc(C(F)(F)F)cc3)nc2C)ccc1OCC(=O)O (stereo not drawn) [Example 86, 2-[4-[2-(2-chloro-5-fluorophenyl)-1-[2-[4-(trifluoromethyl)phenyl]-4-methylthiazol-5-yl]ethylthio]-2-methylphenoxy]acetic acid] | – | – | > 100 | 8.7 | ia | ia
5 | Cc1cc(SC(Cc2c(F)cccc2Cl)c2sc(-c3ccc(C(F)(F)F)c(F)c3)nc2C)ccc1OCC(=O)O (stereo not drawn) [Example 91, 2-[4-[2-(2-chloro-6-fluorophenyl)-1-[2-[3-fluoro-4-(trifluoromethyl)phenyl]-4-methylthiazol-5-yl]ethylthio]-2-methylphenoxy]acetic acid] | – | – | > 10 | 3.9 | ia | ia
6 | Cc1cc(SC(Cc2cc(F)c(F)c(F)c2)c2sc(-c3ccc(C(F)(F)F)c(F)c3)nc2C)ccc1OCC(=O)O (stereo not drawn) [Example 92, 2-[4-[1-[2-[3-fluoro-4-(trifluoromethyl)phenyl]-4-methylthiazol-5-yl]-2-(3,4,5-trifluorophenyl)ethylthio]-2-methylphenoxy]acetic acid] | – | – | > 30 | 21.6 | ia | ia
7 | Cc1cc(SC(Cc2c(F)cccc2C(F)(F)F)c2sc(-c3ccc(C(F)(F)F)c(F)c3)nc2C)ccc1OCC(=O)O (stereo not drawn) [Example 93, 2-[4-[1-[2-[3-fluoro-4-(trifluoromethyl)phenyl]-4-methylthiazol-5-yl]-2-(2-fluoro-6-(trifluoromethyl)phenyl)ethylthio]-2-methylphenoxy]acetic acid] | – | – | > 10 | 2.6 | ia | ia
8 | Cc1cc(SC(Cc2c(F)cccc2F)c2sc(-c3ccc(C(F)(F)F)c(F)c3)nc2C)ccc1OCC(=O)O (stereo not drawn) [Example 94, 2-[4-[1-[2-[3-fluoro-4-(trifluoromethyl)phenyl]-4-methylthiazol-5-yl]-2-(2,6-difluorophenyl)ethylthio]-2-methylphenoxy]acetic acid] | – | – | > 10 | 0.9 | ia | ia
9 | Cc1cc(SC(Cc2c(Cl)cccc2Cl)c2sc(-c3ccc(C(F)(F)F)c(F)c3)nc2C)ccc1OCC(=O)O (stereo not drawn) [Example 95, 2-[4-[2-(2,6-dichlorophenyl)-1-[2-[3-fluoro-4-(trifluoromethyl)phenyl]-4-methylthiazol-5-yl]ethylthio]-2-methylphenoxy]acetic acid] | – | – | > 10 | 2.3 | ia | ia
